From ChEMBL document CHEMBL1806498, “Novel imidazo[1,2-a]pyridine based inhibitors of the IGF-1 receptor tyrosine kinase: optimization of the aniline” (Bioorg Med Chem Lett, 2011)

Assays:
[1] = Dissociation constant, pKa of the compound at pH 7.4 by UV spectrophotometric titration; type: physicochemical
[2] = physchem; conditions: buffer, pH 7.4
[3] = physchem; conditions: octanol/water
[4] = Aqueous solubility of the compound in phosphate buffer at pH 7.4; type: physicochemical

Row | pKa [1] | solubility [4] | Compound | logD [2] | logP [3]
1 | 8.7 |  | COc1cc(N2CC3CNCC(C2)O3)ccc1Nc1ncc(Cl)c(-c2cnc3ccccn23)n1 | 2.3 | 3.6
2 | 8.4 |  | COc1cc(N2CC3CN(CCO)CC(C2)O3)ccc1Nc1ncc(Cl)c(-c2cnc3ccccn23)n1 |  | 
3 |  | < 0.6 µM | COc1cc(N2CCN(S(C)(=O)=O)CC2)ccc1Nc1ncc(Cl)c(-c2cnc3ccccn23)n1 |  | 

Row | Compound | pKa [1] | solubility [4] | logD [2] | logP [3]
4 | COc1cc(N2CC3COCC(C2)N3)ccc1Nc1ncc(Cl)c(-c2cnc3ccccn23)n1 | 6.7 |  | 3 | 3.1
